# Source: US20220016215A1, “GIP RECEPTOR AGONIST PEPTIDE COMPOUNDS AND USES THEREOF” (TAKEDA PHAARMACEUTICAL COMPANY LIMITED, priority 2018, published 2022)
# Marks after values point to notes of the source that are not given here.
# How the values were obtained:
# [1] = system: morphine (0.6 mg/kg, s.c.)-induced emesis in ferrets; assay: Morphine-induced acute emetic model in male ferrets; type: in vivo, ferret; details: for Emesis: Latency / Fidget: Latency / Licking: Latency / Retching: Latency / Vomiting: Latency: non-responders counted as 30 min; for Attenuation of morphine-induced emesis (in words) / Comment: Anti-Emetic Activity (inhibition) on morphine-induced emesis: male ferrets; for Attenuation of morphine-induced emesis (in words): 30 nmol/kg s.c. 30 minutes before morphine 0.6 mg/kg s.c.; for Comment: Anti-Emetic Activity (inhibition) on morphine-induced emesis: summary of the morphine experiments
# Experimental: Example 6—In-Vivo Effect of GIP Receptor Agonist Peptides on Emesis in Morphine Induced Emesis Model in Live Male Ferrets
# Effect of subcutaneously administered GIP receptor agonist peptide in morphine-induced acute emetic model.
# To evaluate the antiemetic effect, the GIP receptor agonist peptides other than natural human GIP were subcutaneously administered into male ferrets 30 minutes before morphine administration. […]. Up to 60 minutes after morphine administration, the condition of the ferrets was monitored to record the frequencies and time points of abdominal contraction motions, vomiting behaviors, licking with the tongue, and fidgety behavior occurring
# Effects of Subcutaneously Administered GIP Receptor Agonist Peptides in Morphine-Induced Acute Emetic Model
# 30 nmol/kg of Compounds 3 and 5 were dissolved with a vehicle (0.09 w/v % tween 80/10% DMSO/saline), respectively, to prepare test solutions. […] of the test solutions and the vehicle were subcutaneously administered to ferrets (4 in each group), respectively. At the time of each of 4 hours, after administration, 0.6 mg/kg of morphine was subcutaneously administered. […] See results in Tables 6, 7 and 8.
# (§1) 10 nmol/kg of each compound dissolved with a vehicle (0.09 w/v % tween 80/10% DMSO/saline) respectively, to prepare test solutions. […] of the test solutions and the vehicle were subcutaneously administered to ferrets (4 in each group), respectively. At the time of each of 4 hours, or 120 hours after administration, 0.6 mg/kg of morphine was subcutaneously administered. Up to 360 minutes after morphine administration, the condition of the ferrets was monitored to record the frequencies and time points of abdominal contraction motions, vomiting behaviors, licking with the tongue, and fidgety behavior occurring.
# as §1, with “30 nmol/kg” for “10 nmol/kg”, “80/10% DMSO/saline),respectively,” for “80/10% DMSO/saline) respectively,”
# human GIPR = molecular target: T1, human GIPR (Homo sapiens, UniProt P48546); assay: Agonist activity on human GIPR, CRE-luciferase reporter assay (increase in intracellular cAMP as indicator); type: cell-based; details: GLP1R EC50 / GIPR EC50
# T1 construct: expressed in transfected cells
# T1 sequence (P48546 22-466): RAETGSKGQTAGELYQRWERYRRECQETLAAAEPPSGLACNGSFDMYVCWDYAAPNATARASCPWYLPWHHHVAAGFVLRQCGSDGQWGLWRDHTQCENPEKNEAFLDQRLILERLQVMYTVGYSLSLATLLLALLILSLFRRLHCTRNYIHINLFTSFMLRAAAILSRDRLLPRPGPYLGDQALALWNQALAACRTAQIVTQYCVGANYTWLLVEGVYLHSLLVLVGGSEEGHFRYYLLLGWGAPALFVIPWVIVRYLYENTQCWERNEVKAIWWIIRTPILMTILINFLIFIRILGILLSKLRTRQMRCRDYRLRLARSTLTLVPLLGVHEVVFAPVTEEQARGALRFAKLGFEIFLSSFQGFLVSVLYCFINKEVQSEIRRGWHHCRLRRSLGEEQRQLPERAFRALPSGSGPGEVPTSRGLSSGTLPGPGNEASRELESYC
# From the text: The human GIPR gene having an identical sequence to Genebank Accession No. U39231 is cloned into a pMSRα-neo vector to prepare hGIPR/pMSRα-neo.
# (2) Construction of Reporter Plasmid Expressing Cell
# Luciferase reporter gene with a cAMP-responsive sequence located upstream is transferred to a CHO-K1 cell to construct a CRE-LUC/CHO-K1 cell.
# (4) Transfer of Human GIPR Gene to CRE-LUC/CHO-K1 Cell and Obtaining of Expressing Cell
# The plasmid hGIPR/pMSRα-neo obtained in (1) is transferred to the CRE-LUC/CHO-K1 cell obtained in (2) to obtain a transformant. Subsequently, the cell line inducing the luciferase expression, hGIPR/CRE-LUC/CHO-K1 cell, is selected from the obtained transformant by adding GIP.
# 25 μL each of the hGIPR/CRE-LUC/CHO-K1 cell is inoculated in a 384-well white plate (Corning) in such a way as to provide 5×10^3 cells/well and may be cultured in a HamF12 medium containing 10% fetal bovine serum, 100 U/mL penicillin, and 100 μg/mL streptomycin in a CO2 incubator at 37° C. overnight. 5 μL of a medium containing a test compound is added to the cells and incubated for 4 hours at the indicated concentration in a CO2 incubator at 37° C. Steady-Glo (Promega) is added in amounts of 30 μL and shaken under light shielding. Twenty minutes later, luciferase activity is measured using a plate reader Envision (PerkinElmer). The GIPR agonist activity is calculated with increase in intracellular cAMP concentration as the indicator when the luciferase activity in the presence of 10 nM of GIP was 100% and the luciferase activity in the case of adding DMSO instead of the test compound was 0%.
# [2] = ferrets, morphine 0.6 mg/kg s.c. 0.5 h after drug, 106-[…] s.c. (30 nmol/kg)
# [3] = ferret, morphine 0.6 mg/kg s.c. 4 h after drug, 1047 μg/kg s.c.
smiles,measurement,setting,value
CC[C@H](C)[C@H](NC(=O)[C@H](CO)NC(=O)[C@H](Cc1ccc(O)cc1)NC(=O)[C@H](CC(=O)O)NC(=O)[C@H](CO)NC(=O)[C@@H](NC(=O)[C@H](Cc1ccccc1)NC(=O)[C@@H](NC(=O)CNC(=O)[C@H](CCC(=O)O)NC(=O)[C@H](C)NC(=O)[C@H](Cc1ccc(O)cc1)NC(C)=O)[C@@H](C)O)[C@@H](C)CC)C(=O)N[C@@H](C)C(=O)N[C@@H](CCSC)C(=O)N[C@@H](CC(=O)O)C(=O)N[C@@H](CCCCN)C(=O)N[C@H](C(=O)N[C@@H](Cc1c[nH]cn1)C(=O)N[C@@H](CCC(N)=O)C(=O)N[C@@H](CCC(N)=O)C(=O)N[C@@H](CC(=O)O)C(=O)N[C@@H](Cc1ccccc1)C(=O)N[C@H](C(=O)N[C@@H](CC(N)=O)C(=O)N[C@@H](Cc1c[nH]c2ccccc12)C(=O)N[C@@H](CC(C)C)C(=O)N[C@@H](CC(C)C)C(=O)N[C@@H](C)C(=O)N[C@@H](CCC(N)=O)C(=O)N[C@@H](CCCCN)C(=O)NCC(=O)N[C@@H](CCCCN)C(=O)N[C@@H](CCCCN)C(=O)N[C@@H](CC(N)=O)C(=O)N[C@@H](CC(=O)O)C(=O)N[C@@H](Cc1c[nH]c2ccccc12)C(=O)N[C@@H](CCCCN)C(=O)N[C@@H](Cc1c[nH]cn1)C(=O)N[C@@H](CC(N)=O)C(=O)N[C@H](C(=O)N[C@H](C(=O)N[C@@H](CCC(N)=O)C(=O)O)[C@@H](C)CC)[C@@H](C)CC)C(C)C)[C@@H](C)CC [Compound 1],Emesis: Duration,[1]; [2],0.0 ± 0.0 min
same,Emesis: Frequency,[1]; [2],0.0 ± 0.0
same,Emesis: No. of animals (responder/used),[1]; [2],0/4 #
same,Fidget: Duration,[1]; [2],0.0 ± 0.0 min
same,Fidget: Frequency,[1]; [2],0.0 ± 0.0
same,Fidget: No. of animals (responder/used),[1]; [2],0/4
same,Licking: Duration,[1]; [2],0.0 ± 0.0 min
same,Licking: Frequency,[1]; [2],0.0 ± 0.0
same,Licking: No. of animals (responder/used),[1]; [2],0/4 #
same,Retching: Duration,[1]; [2],0.0 ± 0.0 min
same,Retching: Frequency,[1]; [2],0.0 ± 0.0
same,Retching: No. of animals (responder/used),[1]; [2],0/4 #
same,Vomiting: Duration,[1]; [2],0.0 ± 0.0 min
same,Vomiting: Frequency,[1]; [2],0.0 ± 0.0
same,Vomiting: No. of animals (responder/used),[1]; [2],0/4
same,Emesis: Latency,[1]; [2],30.0 ± 0.0 min
same,Fidget: Latency,[1]; [2],30.0 ± 0.0 min
same,Licking: Latency,[1]; [2],30.0 ± 0.0 min
same,Retching: Latency,[1]; [2],30.0 ± 0.0 min
same,Vomiting: Latency,[1]; [2],30.0 ± 0.0 min
same,Attenuation of morphine-induced emesis (in words),[1],completely attenuated
same,Comment: Anti-Emetic Activity (inhibition) on morphine-induced emesis,[1],100% inhibition
same,Selectivity Ratio (B/A),human GIPR,"30,200"
CCCCCCCCCCCCCCCC(=O)NCCCC[C@H](NC(=O)[C@H](Cc1c[nH]c2ccccc12)NC(=O)[C@H](CC(=O)O)NC(=O)[C@H](CC(N)=O)NC(=O)[C@H](CCCCN)NC(=O)[C@H](CCCCN)NC(=O)CNC(=O)[C@H](CCCCN)NC(=O)[C@H](CCC(N)=O)NC(=O)[C@H](C)NC(=O)[C@H](CC(C)C)NC(=O)[C@H](CC(C)C)NC(=O)[C@H](Cc1c[nH]c2ccccc12)NC(=O)[C@H](CC(N)=O)NC(=O)[C@@H](NC(=O)[C@H](Cc1ccccc1)NC(=O)[C@H](CC(=O)O)NC(=O)[C@H](CCC(N)=O)NC(=O)[C@H](CCC(N)=O)NC(=O)[C@H](Cc1c[nH]cn1)NC(=O)[C@@H](NC(=O)[C@H](CCCCN)NC(=O)[C@H](CC(=O)O)NC(=O)[C@H](CCSC)NC(=O)[C@H](C)NC(=O)[C@@H](NC(=O)[C@H](CO)NC(=O)[C@H](Cc1ccc(O)cc1)NC(=O)[C@H](CC(=O)O)NC(=O)[C@H](CO)NC(=O)[C@@H](NC(=O)[C@H](Cc1ccccc1)NC(=O)[C@@H](NC(=O)CNC(=O)[C@H](CCC(=O)O)NC(=O)[C@@H](C)NC(=O)[C@@H](N)Cc1ccc(O)cc1)[C@@H](C)O)[C@@H](C)CC)[C@@H](C)CC)[C@@H](C)CC)C(C)C)C(=O)N[C@@H](Cc1c[nH]cn1)C(=O)N[C@@H](CC(N)=O)C(=O)N[C@H](C(=O)N[C@H](C(=O)N[C@@H](CCC(N)=O)C(N)=O)[C@@H](C)CC)[C@@H](C)CC [Compound 2],Emesis: Duration,[1]; [3],0.3 ± 0.6 min
same,Emesis: Frequency,[1]; [3],2.7 ± 4.6
same,Emesis: No. of animals (responder/used),[1]; [3],1/3
same,Fidget: Duration,[1]; [3],0.3 ± 0.6 min
same,Fidget: Frequency,[1]; [3],0.3 ± 0.6
same,Fidget: No. of animals (responder/used),[1]; [3],1/3
same,Licking: Duration,[1]; [3],0.0 ± 0.0 min
same,Licking: Frequency,[1]; [3],0.0 ± 0.0
same,Licking: No. of animals (responder/used),[1]; [3],0/3 #
same,Retching: Duration,[1]; [3],0.3 ± 0.6 min
same,Retching: Frequency,[1]; [3],2.7 ± 4.6
same,Retching: No. of animals (responder/used),[1]; [3],1/3
same,Vomiting: Duration,[1]; [3],0.0 ± 0.0 min
same,Vomiting: Frequency,[1]; [3],0.0 ± 0.0
same,Vomiting: No. of animals (responder/used),[1]; [3],0/3
same,Emesis: Latency,[1]; [3],22.7 ± 12.7 min
same,Fidget: Latency,[1]; [3],22.7 ± 12.7 min
same,Licking: Latency,[1]; [3],30.0 ± 0.0 min
same,Retching: Latency,[1]; [3],22.7 ± 12.7 min
same,Vomiting: Latency,[1]; [3],30.0 ± 0.0 min
same,Attenuation of morphine-induced emesis (in words),[1],completely attenuated
same,Comment: Anti-Emetic Activity (inhibition) on morphine-induced emesis,[1],partial inhibition
same,Selectivity Ratio (B/A),human GIPR,417
